{
  "source": "ChEMBL document CHEMBL6182945",
  "about": "“MMAE-Based Peptide-Drug Conjugates Targeting GPC3 for Precision Chemoradiotherapy in Hepatocellular Carcinoma” (J Med Chem, 2025)",
  "key": {"[1]": {"test_system": "Hep 3B2", "assay": "Cell cycle arrest in human Hep3B cells assessed as accumulation of cells at S phase at 10 nM measured after 24 hrs incubation by PI staining based flow cytometry (reference value: 28.91%)", "assay_type": "functional"}, "[2]": {"test_system": "Hep 3B2", "assay": "Cell cycle arrest in human Hep3B cells assessed as accumulation of cells at G0/G1 phase at 30 nM measured after 24 hrs incubation by PI staining based flow cytometry (reference value: 48%)", "assay_type": "functional"}, "[3]": {"test_system": "Hep 3B2", "assay": "Cell cycle arrest in human Hep3B cells assessed as accumulation of cells at G2/M phase at 30 nM measured after 24 hrs incubation by PI staining based flow cytometry (reference value: 23%)", "assay_type": "functional"}, "[4]": {"test_system": "Huh-7", "assay": "Cell cycle arrest in human Huh-7 cells assessed as accumulation of cells at G0/G1 phase at 10 nM measured after 24 hrs incubation by PI staining based flow cytometry (reference value: 47.97%)", "assay_type": "functional"}, "[5]": {"test_system": "Huh-7", "assay": "Cell cycle arrest in human Huh-7 cells assessed as accumulation of cells at G2/M phase at 10 nM measured after 24 hrs incubation by PI staining based flow cytometry (reference value: 18.88%)", "assay_type": "functional"}, "[6]": {"test_system": "Huh-7", "assay": "Cell cycle arrest in human Huh-7 cells assessed as accumulation of cells at G2/M phase at 30 nM measured after 24 hrs incubation by PI staining based flow cytometry (reference value: 18.88%)", "assay_type": "functional"}, "[7]": {"test_system": "Huh-7", "assay": "Cell cycle arrest in human Huh-7 cells assessed as accumulation of cells at S phase at 30 nM measured after 24 hrs incubation by PI staining based flow cytometry (reference value: 33.15%)", "assay_type": "functional"}, "[8]": {"test_system": "LX-2", "assay": "Cell cycle arrest in human LX-2 cells assessed as accumulation of cells at S phase at 10 nM measured after 24 hrs incubation by PI staining based flow cytometry (reference value: 36.93%)", "assay_type": "functional"}, "[9]": {"test_system": "LX-2", "assay": "Cell cycle arrest in human LX-2 cells assessed as accumulation of cells at G2/M phase at 30 nM measured after 24 hrs incubation by PI staining based flow cytometry (reference value: 14.65%)", "assay_type": "functional"}, "[10]": {"test_system": "LX-2", "assay": "Cell cycle arrest in human LX-2 cells assessed as accumulation of cells at G0/G1 phase at 100 nM measured after 24 hrs incubation by PI staining based flow cytometry (reference value: 48.42%)", "assay_type": "functional"}, "[11]": {"test_system": "LX-2", "assay": "Cell cycle arrest in human LX-2 cells assessed as accumulation of cells at G2/M phase at 100 nM measured after 24 hrs incubation by PI staining based flow cytometry (reference value: 14.65%)", "assay_type": "functional"}, "[12]": {"test_system": "Huh-7", "assay": "Cell cycle arrest in human Huh-7 cells assessed as accumulation of cells at G0/G1 phase at 50 nM measured after 18 hrs incubation by PI staining based flow cytometry (reference value: 44.20%)", "assay_type": "functional"}, "[13]": {"test_system": "Huh-7", "assay": "Cell cycle arrest in human Huh-7 cells assessed as accumulation of cells at phase G2/M at 50 nM measured after 18 hrs incubation by PI staining based flow cytometry (reference value: 18.42%)", "assay_type": "functional"}, "[14]": {"test_system": "Huh-7", "assay": "Cell cycle arrest in human Huh-7 cells assessed as accumulation of cells at S phase at 50 nM measured after 18 hrs incubation by PI staining based flow cytometry (reference value: 37.30%)", "assay_type": "functional"}, "[15]": {"test_system": "Huh-7", "assay": "Cell cycle arrest in human Huh-7 cells assessed as accumulation of cells at G0/G1 phase at 50 nM measured after 24 hrs incubation by PI staining based flow cytometry (reference value: 44.20%)", "assay_type": "functional"}, "[16]": {"test_system": "Huh-7", "assay": "Cell cycle arrest in human Huh-7 cells assessed as accumulation of cells at S phase at 50 nM measured after 24 hrs incubation by PI staining based flow cytometry (reference value: 37.30%)", "assay_type": "functional"}, "[17]": {"test_system": "Huh-7", "assay": "Cell cycle arrest in human Huh-7 cells assessed as accumulation of cells at G0/G1 phase at 50 nM measured after 30 hrs incubation by PI staining based flow cytometry (reference value: 44.20%)", "assay_type": "functional"}, "[18]": {"test_system": "Huh-7", "assay": "Cell cycle arrest in human Huh-7 cells assessed as accumulation of cells at phase G2/M at 50 nM measured after 30 hrs incubation by PI staining based flow cytometry (reference value: 18.42%)", "assay_type": "functional"}, "[19]": {"test_system": "Huh-7", "assay": "Cell cycle arrest in human Huh-7 cells assessed as accumulation of cells at S phase at 50 nM measured after 30 hrs incubation by PI staining based flow cytometry (reference value: 37.30%)", "assay_type": "functional"}, "[20]": {"test_system": "Huh-7", "assay": "Radiosensitivity in human Huh-7 cells assessed as […] pre-treated overnight at 10 nM followed by irradiated with 2 Gy and measured after 14 days post treatment by crystal staining based clonogenic assay relative to compound alone/irradiation alone", "assay_type": "functional", "details": "time 14.0 day"}, "[21]": {"test_system": "Huh-7", "assay": "Induction of DNA damage in human irradiated Huh-7 cells assessed as increase in DNA double break by measuring gamma-H2AX foci formation at 100 nM measured after 24 hrs by immunostaining assay relative to compound alone/irradiation alone", "assay_type": "functional, cell-based"}, "[22]": {"test_system": "Huh-7", "assay": "Induction of DNA damage in human irradiated Huh-7 cells assessed as increase in DNA double break by measuring number of gamma-H2AX foci formation at 100 nM measured after 24 hrs by immunostaining assay (reference value: 6 +/- 2 foci)", "assay_type": "functional"}, "[23]": {"test_system": "Huh-7", "assay": "Induction of radiation induced gamma-H2AX phosphorylation in human irradiated Huh-7 cells at 100 nM measured after 24 hrs by Western blot analysis", "assay_type": "functional, cell-based"}, "[24]": {"molecular_target": "Serine/threonine-protein kinase Chk2 (Homo sapiens) (UniProt O96017)", "sequence (O96017 whole entry)": "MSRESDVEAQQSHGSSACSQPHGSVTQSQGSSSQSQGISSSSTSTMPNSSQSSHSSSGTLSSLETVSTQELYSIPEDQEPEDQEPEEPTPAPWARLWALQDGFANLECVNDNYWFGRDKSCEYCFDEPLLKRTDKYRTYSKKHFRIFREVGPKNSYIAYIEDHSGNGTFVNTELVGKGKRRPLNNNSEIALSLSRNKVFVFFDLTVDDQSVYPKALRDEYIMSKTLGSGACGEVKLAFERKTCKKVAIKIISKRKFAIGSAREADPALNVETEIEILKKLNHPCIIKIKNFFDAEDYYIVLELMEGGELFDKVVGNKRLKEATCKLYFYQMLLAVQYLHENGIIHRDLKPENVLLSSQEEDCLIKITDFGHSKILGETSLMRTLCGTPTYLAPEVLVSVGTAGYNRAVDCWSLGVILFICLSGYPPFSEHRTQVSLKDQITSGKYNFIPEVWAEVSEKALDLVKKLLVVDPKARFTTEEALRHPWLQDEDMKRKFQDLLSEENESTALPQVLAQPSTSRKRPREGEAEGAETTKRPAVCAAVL", "assay": "Induction of CHK2 phosphorylation in human irradiated Huh-7 cells at 100 nM measured after 24 hrs by Western blot analysis", "assay_type": "cell-based"}, "[25]": {"test_system": "Huh-7", "assay": "Decrease in CDC25C expression in human irradiated Huh-7 cells at 100 nM measured after 24 hrs by Western blot analysis", "assay_type": "functional, cell-based"}, "[26]": {"test_system": "Huh-7", "assay": "Decrease in CDK1 expression in human irradiated Huh-7 cells at 100 nM measured after 24 hrs by Western blot analysis relative to irradiation alone", "assay_type": "functional, cell-based"}, "[27]": {"test_system": "Huh-7", "assay": "Induction of immunogenic cell death (ICD) in human Huh-7 cells assessed as externalization of calreticulin (CALR) on the cell membrane at 100 nM measured after 24 hrs by immunofluorescence assay", "assay_type": "functional, cell-based"}, "[28]": {"test_system": "Huh-7", "assay": "Induction of immunogenic cell death (ICD) in human Huh-7 cells assessed as translocation of HMGB1 from nucleus to cytoplasm at 100 nM measured after 24 hrs by immunofluorescence assay", "assay_type": "functional, cell-based"}, "[29]": {"test_system": "Huh-7", "assay": "In vivo antitumor activity against human Huh-7 cells xenografted in female BALB/c mouse assessed as reduction in tumor volume at 2 mg/kg, iv total 4 doses measured on day 17 relative to control", "assay_type": "functional", "design": "scale not given: the % may be the effect or the level left", "details": "time 17 day"}, "[30]": {"test_system": "Huh-7", "assay": "In vivo apoptotic activity against human Huh-7 cells xenografted in female BALB/c mouse assessed as tumor apoptosis at 2 mg/kg, iv total 4 doses measured on day 17 relative to control by TUNEL assay", "assay_type": "functional, organism-based", "details": "time 17.0 day"}, "[31]": {"test_system": "Huh-7", "assay": "In vivo antitumor activity against human Huh-7 cells xenografted in female BALB/c mouse assessed as delay in tumor growth at 1 mg/kg, iv followed by irradiated with 2 Gy for 2 consecutive days, once a week for 3 weeks measured on day 22", "assay_type": "functional, organism-based", "details": "time 22.0 day"}, "[32]": {"test_system": "Huh-7", "assay": "In vivo antitumor activity against human Huh-7 cells xenografted in female BALB/c mouse assessed as gamma-H2AX positive cells at 1 mg/kg, iv followed by irradiated with 2 Gy for 2 consecutive days, once a week for 3 weeks measured on day 22", "assay_type": "functional, organism-based", "details": "time 22.0 day"}},
  "note": "Active and inactive are the calls of the source. The calls are words filed in the database; no cut-off is given here.",
  "data": [
    {"molecule": "CC[C@H](C)[C@@H]([C@@H](CC(=O)N1CCC[C@H]1[C@H](OC)[C@@H](C)C(=O)N[C@H](C)[C@@H](O)c1ccccc1)OC)N(C)C(=O)[C@@H](NC(=O)[C@H](C(C)C)N(C)C(=O)OCc1ccc(NC(=O)[C@H](CCCNC(N)=O)NC(=O)[C@@H](NC(=O)CCCCCN2C(=O)CC(SC[C@H](N)C(=O)N[C@@H](CO)C(=O)N[C@@H](CC(N)=O)C(=O)N[C@@H](CC(=O)O)C(=O)N[C@@H](CCCNC(=N)N)C(=O)N3CCC[C@@H]3C(=O)N3CCC[C@@H]3C(=O)N[C@@H](CC(N)=O)C(=O)N[C@H](C(=O)N[C@@H](CC(C)C)C(=O)N[C@@H](CCC(N)=O)C(=O)N[C@@H](CCCCN)C(=O)N[C@@H](CCCNC(=N)N)C(N)=O)[C@@H](C)CC)C2=O)C(C)C)cc1)C(C)C", "note": "(some centres not stated)", "values": [
      {"measurement": "Activity", "setting": "[1]", "result": 19.52, "unit": "%"},
      {"measurement": "Activity", "setting": "[2]", "result": 28.5, "unit": "%"},
      {"measurement": "Activity", "setting": "[3]", "result": 45.12, "unit": "%"},
      {"measurement": "Activity", "setting": "[4]", "result": 50.55, "unit": "%"},
      {"measurement": "Activity", "setting": "[5]", "result": 35.65, "unit": "%"},
      {"measurement": "Activity", "setting": "[6]", "result": 49.02, "unit": "%"},
      {"measurement": "Activity", "setting": "[7]", "result": 13.76, "unit": "%"},
      {"measurement": "Activity", "setting": "[8]", "result": 38.15, "unit": "%"},
      {"measurement": "Activity", "setting": "[9]", "result": 15.25, "unit": "%"},
      {"measurement": "Activity", "setting": "[10]", "result": 39.1, "unit": "%"},
      {"measurement": "Activity", "setting": "[11]", "result": 23.65, "unit": "%"},
      {"measurement": "Activity", "setting": "[12]", "result": 31.13, "unit": "%"},
      {"measurement": "Activity", "setting": "[13]", "result": 44.55, "unit": "%"},
      {"measurement": "Activity", "setting": "[14]", "result": 24.32, "unit": "%"},
      {"measurement": "Activity", "setting": "[15]", "result": 28.27, "unit": "%"},
      {"measurement": "Activity", "setting": "[16]", "result": 14.94, "unit": "%"},
      {"measurement": "Activity", "setting": "[17]", "result": 31.74, "unit": "%"},
      {"measurement": "Activity", "setting": "[18]", "result": 54.83, "unit": "%"},
      {"measurement": "Activity", "setting": "[19]", "result": 13.43, "unit": "%"},
      {"measurement": "Activity", "setting": "[20]", "result": "Active"},
      {"measurement": "Activity", "setting": "[21]", "result": "Active"},
      {"measurement": "Activity", "setting": "[22]", "result": 18},
      {"measurement": "Activity", "setting": "[23]", "result": "Active"},
      {"measurement": "Activity", "setting": "[24]", "result": "Active"},
      {"measurement": "Activity", "setting": "[25]", "result": "Active"},
      {"measurement": "Activity", "setting": "[26]", "result": "Active"},
      {"measurement": "Activity", "setting": "[27]", "result": "Active"},
      {"measurement": "Activity", "setting": "[28]", "result": "Active"},
      {"measurement": "Activity", "setting": "[29]", "result": 66, "unit": "%"},
      {"measurement": "Activity", "setting": "[30]", "result": "Active"},
      {"measurement": "Activity", "setting": "[31]", "result": "Active"},
      {"measurement": "Activity", "setting": "[32]", "result": "Active"}
    ]}
  ]
}
